# Data taken from PubChem BioAssay (NCI).
#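 Growth conditions: 96-well plates. Treatment: test compound, 48 hours, 5 concentrations. Analysis: linear interpolation between bracketing concentrations; unreached endpoints set to highest concentration. The concentration for 50% growth inhibition is given as GI50. TGI marks complete inhibition of growth.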
# What was measured:
# Test in all cases: NCI anticancer screen, dose series, 48 h
# HL-60(TB) leukemia = tested on: HL-60(TB) leukemia
# MCF7 breast = tested on: MCF7 breast
# LOX IMVI melanoma = tested on: LOX IMVI melanoma
# DU-145 prostate = tested on: DU-145 prostate
# MOLT-4 leukemia = tested on: MOLT-4 leukemia
# SNB-75 CNS = tested on: SNB-75 CNS
# SW-620 colon = tested on: SW-620 colon
# SK-MEL-5 melanoma = tested on: SK-MEL-5 melanoma
# OVCAR-4 ovarian = tested on: OVCAR-4 ovarian
# T-47D breast = tested on: T-47D breast
Compound,TGI (HL-60(TB) leukemia),TGI (MCF7 breast),TGI (LOX IMVI melanoma),TGI (DU-145 prostate),TGI (MOLT-4 leukemia),TGI (SNB-75 CNS),TGI (SW-620 colon),TGI (SK-MEL-5 melanoma),TGI (OVCAR-4 ovarian),TGI (T-47D breast),GI50 (HL-60(TB) leukemia),GI50 (MCF7 breast),GI50 (LOX IMVI melanoma),GI50 (DU-145 prostate),GI50 (MOLT-4 leukemia),GI50 (SNB-75 CNS),GI50 (T-47D breast),GI50 (SW-620 colon),GI50 (SK-MEL-5 melanoma),GI50 (OVCAR-4 ovarian)
CC[N+](CC)(CCNCC(N)=O)CC(N)=O,> 10 µM,> 10 µM,> 10 µM,> 10 µM,> 10 µM,> 10 µM,> 10 µM,> 10 µM,> 10 µM,–,–,–,–,–,–,–,–,–,–,–
c1ccc(N=C2SC(=NC3CCCCC3)N(C3CCCCC3)C2=Nc2ccccc2)cc1,> 100 µM,> 100 µM,–,> 100 µM,> 100 µM,> 100 µM,–,> 100 µM,–,> 100 µM,–,–,–,–,–,–,–,–,–,–
Cc1ccc(S(=O)(=O)Oc2cc(-c3ccccc3)nc3ccccc23)cc1,6.88 µM,> 48.4 µM,> 78.5 µM,–,> 100 µM,6.93 µM,> 47.3 µM,21.3 µM,16.2 µM,–,–,–,–,–,–,–,–,–,–,–
C=CC(Br)(CBr)CCC(Cl)C(C)C (centres undefined),2.38 µM,3.07 µM,2.46 µM,8.69 µM,4.31 µM,3.04 µM,3.35 µM,3.91 µM,3.29 µM,–,–,–,–,–,–,–,–,–,–,–
O=NN(CCCl)C(=O)NC1CCSc2ccccc21 (centres undefined),48.7 µM,> 100 µM,> 100 µM,–,99.1 µM,> 100 µM,> 100 µM,> 100 µM,> 100 µM,–,–,–,–,–,–,–,–,–,–,–
NC(Cc1cccc([N+](=O)[O-])c1)C(=O)O (centres undefined),> 100 µM,> 100 µM,> 100 µM,> 100 µM,> 100 µM,–,> 100 µM,> 100 µM,> 100 µM,> 100 µM,–,–,–,–,–,–,–,–,–,–
Cc1nc(N)sc1-c1ccnc(Nc2ccc(N3CCOCC3)cc2)n1,6.08 µM,> 100 µM,> 100 µM,> 100 µM,> 56.1 µM,5.57 µM,24.9 µM,> 100 µM,> 100 µM,> 100 µM,1.99 µM,1.43 µM,0.907 µM,2.99 µM,0.497 µM,1.38 µM,2.92 µM,1.41 µM,5.05 µM,> 21.7 µM
COc1ccc(C2CC(c3cccc(Nc4ccncc4)c3)=NN2c2cc(Cl)cc(Cl)c2)cc1 (centres undefined),5.12 µM,3.3 µM,2.97 µM,3.58 µM,4.97 µM,11.7 µM,3.26 µM,3.28 µM,3.12 µM,4.43 µM,2.17 µM,1.67 µM,1.62 µM,1.89 µM,2.04 µM,2.09 µM,1.96 µM,1.71 µM,1.81 µM,1.67 µM
NC(N)=NCCN=C(N)N,> 100 µM,> 100 µM,> 100 µM,> 100 µM,> 100 µM,> 100 µM,> 100 µM,> 100 µM,> 100 µM,> 100 µM,–,–,–,–,–,–,–,–,–,–
NNC(N)Nc1ccccc1 (centres undefined),> 100 µM,> 100 µM,–,> 100 µM,> 100 µM,–,> 100 µM,> 100 µM,> 100 µM,> 100 µM,–,–,–,–,–,–,–,–,–,–
NCCCNc1nc2ccccc2c2c(=O)c3cc(OC(F)(F)F)ccc3sc12,3.59 µM,–,–,3.04 µM,–,2.73 µM,–,3.36 µM,–,–,1.84 µM,–,–,1.62 µM,–,1.39 µM,–,–,1.83 µM,–
CC(=O)Oc1cccc2c(/C=N/NC(N)=S)ncc(C)c12,> 100 µM,3.32 µM,8.98 µM,17.8 µM,> 62.8 µM,> 55.6 µM,> 49.7 µM,16.4 µM,38.6 µM,31.3 µM,–,–,–,–,–,–,–,–,–,–
CC1CC=CC(O)C1 (centres undefined),> 100 µM,> 100 µM,> 100 µM,–,> 100 µM,> 100 µM,> 100 µM,> 100 µM,> 100 µM,–,–,–,–,–,–,–,–,–,–,–
O=C(OC(=O)n1ccc2ccccc21)n1ccc2ccccc21,> 100 µM,> 100 µM,> 100 µM,–,> 100 µM,> 100 µM,> 100 µM,> 100 µM,> 100 µM,–,–,–,–,–,–,–,–,–,–,–
CCCCCN=Cc1c(O)c(O)c(C(C)C)c2cc(C)c(-c3c(C)cc4c(C(C)C)c(O)c(O)c(C=NCCCCC)c4c3O)c(O)c12,22.2 µM,27.2 µM,16.7 µM,> 100 µM,–,–,> 100 µM,28.1 µM,–,25.8 µM,–,–,–,–,–,–,–,–,–,–
COc1cc(C[S+]2CCCC2)c(SC)cc1C[S+]1CCCC1,> 100 µM,–,> 100 µM,–,> 100 µM,> 100 µM,> 100 µM,> 100 µM,> 100 µM,–,–,–,–,–,–,–,–,–,–,–
Cc1cc(=O)[nH]c(NN2C(Cl)C(=O)C2c2cccc(O)c2)n1 (centres undefined),29.8 µM,–,> 100 µM,–,> 100 µM,6.73 µM,> 100 µM,> 100 µM,> 100 µM,–,–,–,–,–,–,–,–,–,–,–
CCC[CH2][Ge]([CH2]CCC)([CH2]CCC)[O]C(=O)CC(=O)c1ccccc1,11.5 µM,–,1.72 µM,–,18 µM,–,12.6 µM,–,21.3 µM,–,0.138 µM,–,0.313 µM,–,0.457 µM,–,–,0.825 µM,–,2.49 µM
NC(CCCCP(=O)(O)O)C(=O)O (centres undefined),> 100 µM,–,> 100 µM,> 100 µM,> 100 µM,> 100 µM,> 100 µM,> 100 µM,> 100 µM,> 100 µM,–,–,–,–,–,–,–,–,–,–
CCc1nc(N)nc(N)c1-c1ccc2nn(-c3ccccc3)[n+]([O-])c2c1,27.4 µM,20.8 µM,17.7 µM,20.1 µM,32.5 µM,53.1 µM,18.3 µM,19.6 µM,56.6 µM,31.7 µM,–,–,–,–,–,–,–,–,–,–
CC(=O)OC1CCC2(C)C3CCC4(C)C(c5ccc(=O)oc5)CC5OC54C3CCC2(O)C1 (centres undefined),1.48 µM,14.8 µM,16.5 µM,–,0.934 µM,5.77 µM,4.04 µM,4.76 µM,5.61 µM,–,–,–,–,–,–,–,–,–,–,–
Nc1nc(N)c2[nH]c(CNc3ccc(C(=O)O)cc3)nc2n1,> 100 µM,> 100 µM,> 100 µM,> 100 µM,> 100 µM,> 100 µM,> 100 µM,> 100 µM,> 100 µM,> 100 µM,–,–,–,–,–,–,–,–,–,–
O=[N+]([O-])c1ccc(C=C2C(Cl)=C(Cl)C(Cl)=C2Cl)cc1,–,10.9 µM,4.3 µM,–,> 100 µM,6.98 µM,–,> 100 µM,6.1 µM,5.46 µM,–,2.78 µM,2 µM,–,3.07 µM,2.05 µM,2.16 µM,–,21.8 µM,2.42 µM
